According to patent US20100168079A1 (priority 2008, published 2010):

What follows are molecules tested against T1, human S1P1 receptors (Homo sapiens, UniProt P21453) (assay: Human S1P1 Receptor Calcium FLIPR Antagonist Assay (HeLa Gα16 S1P1)). Details: relative antagonism of Ca2+ signal evoked by probing agonist GNF-AC-1 at EC80; HeLa-S1P1/Gα16 cells.
T1 construct: myc (N); expressed in transfected cells; host or cells: HeLa (human cervix carcinoma, ATCC CCL2), HeLa-S1P1/Gα16 cell clone 1
Assay type: cell-based
Procedure: Human S1P1 Receptor Calcium FLIPR Antagonist Assay
The cells are plated in 384 well black plates (10′000 cells per well). […] After washing, the cells are transferred to the FLIPR. The test compounds are added at different concentrations […]) in HBSS in the presence of 0.1% BSA and changes in fluorescence are recorded (indication of agonism). The probing agonist is added 20-30 minutes afterwards to the wells at a concentration giving 80% of the maximal activity (EC80). After each addition, time points are collected as follows: 20 time points (2 seconds) before the addition of the agonist (Fmin) and 60 time points (1 or 2 seconds) after the addition of the probing agonist. This allows the determination of the maximal fluorescence (Fmax). The ratio (Fmax-Fmin)/Fmin is plotted against the log of the concentration of the test compounds and the IC50 (relative antagonism) is calculated using the XLfit-4 software. […] A concentration-response curve of the probing agonist is determined on each plate in parallel.

T1 sequence (P21453 whole entry): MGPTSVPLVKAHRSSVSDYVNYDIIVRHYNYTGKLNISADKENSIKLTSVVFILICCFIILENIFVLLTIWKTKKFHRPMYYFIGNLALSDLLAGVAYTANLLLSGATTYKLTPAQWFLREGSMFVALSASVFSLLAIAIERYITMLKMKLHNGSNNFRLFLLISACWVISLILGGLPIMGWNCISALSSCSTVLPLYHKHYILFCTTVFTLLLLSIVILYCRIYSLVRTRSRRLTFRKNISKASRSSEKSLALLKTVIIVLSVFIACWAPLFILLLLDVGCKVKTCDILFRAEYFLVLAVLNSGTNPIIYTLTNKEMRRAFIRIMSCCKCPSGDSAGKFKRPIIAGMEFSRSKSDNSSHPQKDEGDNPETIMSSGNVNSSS

SMILES	IC50 [nM]
Cc1cc(C(C)Nc2cccc(-c3ccc(C(=O)N(C)[C@@H](C)C(=O)O)c(C(F)(F)F)c3)c2)cc(C)c1Cl (stereo partly drawn) [Example 65, (S)-2-({3′-[1-(4-Chloro-3,5-dimethyl-phenyl)-ethylamino]-3-trifluoromethyl-biphenyl-4-carbonyl}-methyl-amino)-propionic acid]	6
CCC(Nc1cccc(-c2ccc(C(=O)N[C@@H](C)C(=O)O)c(C(F)(F)F)c2)c1)c1ccc(Cl)c(C)c1 (stereo partly drawn) [Example 66, (S)-2-({3′-[1-(4-Chloro-3-methyl-phenyl)-propylamino]-3-trifluoromethyl-biphenyl-4-carbonyl}-amino)-propionic acid]	3
Cc1cc(C(C)Nc2cccc(-c3cc(C)c(C(=O)NCC(=O)O)c(C)c3)c2)ccc1Cl (stereo not shown) [Example 68, ({3′-[1-(4-Chloro-3-methyl-phenyl)-ethylamino]-3,5-dimethyl-biphenyl-4-carbonyl}-amino)-acetic acid]	1
COC[C@H](NC(=O)c1c(C)cc(-c2cccc(NC(C)c3ccc(Cl)c(C)c3)c2)cc1C)C(=O)O (stereo partly drawn) [Example 69, (S)-2-({3′-[1-(4-Chloro-3-methyl-phenyl)-ethylamino]-3,5-dimethyl-biphenyl-4-carbonyl}-amino)-3-methoxy-propionic acid]	2
Cc1cc(C(C)Nc2cccc(-c3cc(C)c(C(=O)N[C@@H](CCCCN)C(=O)O)c(C)c3)c2)ccc1Cl (stereo partly drawn) [Example 70, (S)-6-Amino-2-({3′-[1-(4-chloro-3-methyl-phenyl)-ethylamino]-3,5-dimethyl-biphenyl-4-carbonyl}-amino)-hexanoic acid]	2
Cc1cc(C(C)Nc2cccc(-c3cc(C)c(C(=O)NC4(C(=O)O)CCC4)c(C)c3)c2)ccc1Cl (stereo not shown) [Example 72, 1-({3′-[1-(4-Chloro-3-methyl-phenyl)-ethylamino]-3,5-dimethyl-biphenyl-4-carbonyl}-amino)-cyclobutanecarboxylic acid]	2
Cc1cc(C(C)Nc2cccc(-c3cc(C)c(C(=O)NC4(C(=O)O)CNC4)c(C)c3)c2)ccc1Cl (stereo not shown) [Example 79, 3-({3′-[1-(4-Chloro-3-methyl-phenyl)-ethylamino]-3,5-dimethyl-biphenyl-4-carbonyl}-amino)-azetidine-3-carboxylic acid]	2
Cc1cc(C(C)N(C)c2cccc(-c3cc(C)c(C(=O)N[C@@H](C)C(=O)O)c(C)c3)c2)ccc1Cl (stereo partly drawn) [Example 80, (S)-2-[(3′-{[1-(4-Chloro-3-methyl-phenyl)-ethyl]-methyl-amino}-3,5-dimethyl-biphenyl-4-carbonyl)-amino]-propionic acid]	4

More lines, now with the values ahead:

IC50 [nM]	SMILES
3	CCC(Nc1cccc(-c2ccc(C(=O)N(C)[C@@H](C)C(=O)O)c(C(F)(F)F)c2)c1)c1ccc(Cl)c(C)c1 (stereo partly drawn) [Example 67, (S)-2-({3′-[1-(4-Chloro-3-methyl-phenyl)-propylamino]-3-trifluoromethyl-biphenyl-4-carbonyl}-methyl-amino)-propionic acid]
3	Cc1cc(C(C)Nc2cccc(-c3ccc(C(=O)N(C)[C@@H](C)C(=O)O)c(C)c3)c2)ccc1Cl (stereo partly shown) [Example 76]
7	Cc1cc(-c2cccc(NC(C)c3ccc(Cl)c(Cl)c3)c2)ccc1C(=O)N(C)[C@@H](C)C(=O)O (stereo partly drawn) [Example 78, (S)-2-({3′-[1-(3,4-Dichloro-phenyl)-ethylamino]-3-methyl-biphenyl-4-carbonyl}-methyl-amino)-propionic acid]
6	CCC(Nc1ccc(F)c(-c2ccc(C(=O)N(C)[C@@H](C)C(=O)O)c(C)c2)c1)c1ccc(Cl)c(C)c1 (stereo partly drawn) [Example 86, (S)-2-({5′-[1-(4-Chloro-3-methyl-phenyl)-propylamino]-2′-fluoro-3-methyl-biphenyl-4-carbonyl}-methyl-amino)-propionic acid]
4	Cc1cc(C(C)Nc2ccc(F)c(-c3ccc(C(=O)N(C)[C@@H](C)C(=O)O)c(Cl)c3)c2)ccc1Cl (stereo partly drawn) [Example 87, (S)-2-({3-Chloro-5′-[1-(4-chloro-3-methyl-phenyl)-ethylamino]-2′-fluoro-biphenyl-4-carbonyl}-methyl-amino)-propionic acid]
